Measurements taken from patent US10822352B2, “Aryl, heteroaryl, and heterocyclic compounds for treatment of medical disorders” (Achillion Pharmaceuticals, Inc., priority 2015, dated 2020).
Where two headings read alike, the source gives them in different places. One block for each molecule: values may come before it.

Target: Human Factor D (Homo sapiens (Human), UniProt P00746)
Experiment: Human Factor D Assay
Format: biochemical
Protocol: Human Factor D (purified from human serum, Complement Technology, Inc.) at 80 nM final concentration was incubated with test compound at various concentrations for 5 minutes at room temperature in 50 mM Tris, 1M NaCl, pH 7.5. A synthetic substrate Z-L-Lys-SBzl and DTNB (Ellman's reagent) are added to final concentrations of 100 μM each. […] IC50 values are calculated by nonlinear regression of complement Factor D reaction rates as a function of test compound concentration.

[1] = Human Factor D 80 nM, substrate Z-L-Lys-SBzl, Table 3, read-out: IC5 (Stars)
[2] = Human Factor D 80 nM, substrate Z-L-Lys-SBzl, star classes, read-out: IC50

Human Factor D, sequence (P00746 26-253): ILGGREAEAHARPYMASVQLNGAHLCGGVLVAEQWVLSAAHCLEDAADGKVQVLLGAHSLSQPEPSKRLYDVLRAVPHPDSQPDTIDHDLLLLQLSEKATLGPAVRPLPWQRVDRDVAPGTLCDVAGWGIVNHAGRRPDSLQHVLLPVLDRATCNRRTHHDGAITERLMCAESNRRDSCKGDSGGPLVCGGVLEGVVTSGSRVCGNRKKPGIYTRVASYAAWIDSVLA

Structure (SMILES): CC(=O)c1cn(CC(=O)N2C[C@H](F)C[C@H]2C(=O)NCc2ccncc2)c2ccc(-c3ccnnc3)cc12 [Compound 40, (2S,4R)-1-(2-(3-acetyl-5-(pyridazin-4-yl)-1H-indol-1-yl)acetyl)-4-fluoro-N-(pyridin-4-ylmethyl)pyrrolidine-2-carboxamide]
IC50: 1000 to 10000 nM

Structure (SMILES): NC(=O)c1nn(CC(=O)N2CCC[C@]2(F)C(=O)Nc2cccnc2)c2ccc(-c3ccnnc3)cc12 [Compound 47, 1-(2-((2S,4R)-2-fluoro-2-(pyridin-3-ylcarbamoyl)pyrroli-din-1-yl)-2-oxoethyl)-5-(pyridazin-4-yl)-1H-indazole-3-carboxamide]
IC50 (Human Factor D 80 nM, substrate Z-L-Lys-SBzl, read-out: IC50): > 10000 nM

Structure (SMILES): CC(=O)c1nn(CC(=O)N2C[C@H](F)C[C@H]2C(=O)NC2CCN(C(=O)c3cn[nH]c3)CC2)c2ccc(-c3cnc(C)nc3)cc12 [Compound 261, (2S,4R)-N-(1-(1H-pyrazole-4-carbonyl)piperidin-4-yl)-1-(2-(3-acetyl-5-(2-methylpyrimidin-5-yl)-1H-indazol-1-yl)acetyl)-4-fluoropyrrolidine-2-carboxamide]
IC50 (read-out: IC50): < 1000 nM

Structure (SMILES): CC(=O)c1nn(CC(=O)N2C[C@H](F)C[C@H]2C(=O)Nc2cccc(Br)n2)c2ccc(-c3nc4c(s3)CCCC4)cc12 [Compound 297]
IC50 (Human Factor D, assay of Example 8, read-out: IC50): < 1000 nM

IC50 [1]: < 1000 nM
Structure (SMILES): Cc1ncc(-c2ccc3c(c2)c([C@H](C)O)nn3CC(=O)N2[C@@H]3C[C@@H]3C[C@H]2C(=O)Nc2cccc(Br)n2)cn1 [Compound 409, (1R,3S,5R)—N-(6-Bromopyridin-2-yl)-2-(2-(3-((S)-1-hydroxyethyl)-5-(2-methylpyrimidin-5-yl)-1H-indazol-1-yl)acetyl)-2-azabicyclo[3.1.0]hexane-3-carboxamide]

IC50 [1]: > 10000 nM
Structure (SMILES): Cc1cccc(C[C@H](O)[C@@H]2C[C@@H](F)CN2C(=O)Cn2cc(C(N)=O)c3cc(-c4cnc(C)nc4)ccc32)n1 [Compound 455, 1-(2-((2S,4R)-4-fluoro-2-((S)-1-hydroxy-2-(6-methylpyridin-2-yl)ethyl)pyrrolidin-1-yl)-2-oxoethyl)-5-(2-methylpyrimidin-5-yl)-1H-indole-3-carboxamide]

Structure (SMILES): Cc1cccc(NC(=O)[C@@H]2[C@H]3CC[C@H](C3)N2C(=O)Cn2cc(C(N)=O)c3cc(-c4ccc(F)nc4)ccc32)n1 [Compound 500, 5-(6-Fluoropyridin-3-yl)-1-(2-((1R,3S,4S)-3-(6-methylpyridin-2-ylcarbamoyl)-2-azabicyclo[2.2.1]heptan-2-yl)-2-oxoethyl)-1H-indole-3-carboxamide]
IC50 [1]: > 10000 nM

Structure (SMILES): CC(=O)c1nn(CC(=O)N2C[C@@H](C)C[C@H]2C(=O)Nc2nc(Br)ccc2C)c2ccc(-c3cnc(C)nc3)cc12 [Compound 643, (2S,4S)-1-(2-(3-Acetyl-5-(2-methylpyrimidin-5-yl)-1H-indazol-1-yl)acetyl)-N-(6-bromo-3-methylpyridin-2-yl)-4-methylpyrrolidine-2-carboxamide]
IC50 [2]: < 1000 nM

Structure (SMILES): CC(=O)c1nn(CC(=O)N2C[C@H](F)C[C@@H]2C(=O)Nc2nc(Br)ccc2C(=O)O)c2ccc(-c3cnc(C)nc3)cc12 [Compound 648, 2-((2R,4R)-1-(2-(3-Acetyl-5-(2-methylpyrimidin-5-yl)-1H-indazol-1-yl)acetyl)-4-fluoropyrrolidine-2-carboxamido)-6-bromonicotinic acid]
IC50: 1000 to 10000 nM

Structure (SMILES): Cc1cccc(NC(=O)[C@@H]2[C@H]3CC[C@H](C3)N2C(=O)Cn2cc(C(N)=O)c3cc(-c4n[nH]c5ccsc45)ccc32)n1 [Compound 704, 1-(2-((1R,3S,4S)-3-(6-Methylpyridin-2-ylcarbamoyl)-2-azabicyclo[2.2.1]heptan-2-yl)-2-oxoethyl)-5-(1H-thieno[3,2-c]pyrazol-3-yl)-1H-indole-3-carboxamide]
IC50 [2]: > 10000 nM

Structure (SMILES): COc1ccc(N2C[C@@H]3CC[C@H]2C=C3c2ccc3c(c2)c(C(C)=O)nn3CC(=O)N2C[C@H](F)C[C@H]2C(=O)Nc2cccc(Br)n2)cc1 [Compound 721, (2S,4R)-1-(2-(3-Acetyl-5-((1S,4R)-2-(4-methoxyphenyl)-2-azabicyclo[2.2.2]oct-5-en-5-yl)-1H-indazol-1-yl)acetyl)-N-(6-bromopyridin-2-yl)-4-fluoropyrrolidine-2-carboxamide]
IC50 [2]: < 1000 nM

Structure (SMILES): CC(=O)c1nn(CC(=O)N2C[C@H](F)C[C@H]2C(=O)Nc2cccc(Br)n2)c2ccc(-c3cnc(S(C)(=N)=O)nc3)cc12 (stereo partly drawn) [Compound 732, (2S,4R)-1-(2-(3-Acetyl-5-(2-(S-methylsulfonimidoyl)pyrimidin-5-yl)-1H-indazol-1-yl)acetyl)-N-(6-bromopyridin-2-yl)-4-fluoropyrrolidine-2-carboxamide]
IC50 [2]: < 1000 nM

Structure (SMILES): CC(=O)c1nn(CC(=O)N2[C@H]3CC[C@H](CC3)[C@H]2C(=O)Nc2cccc(Br)n2)c2ccc(-c3cnc(C)nc3)cc12 [Compound 734, (1R,3S,4R)-2-(2-(3-Acetyl-5-(2-methylpyrimidin-5-yl)-1H-indazol-1-yl)acetyl)-N-(6-bromopyridin-2-yl)-2-azabicyclo[2.2.2]octane-3-carboxamide]
IC50 [2]: < 1000 nM
